Experiment: excess molar enthalpy (molar enthalpy of mixing); xn = mol fraction of the nth substance listed
Conditions: 101 kPa, Liquid, Calvet calorimetry

[Bi] [bismuth] + [Cu]
Conditions | excess molar enthalpy [kcal/mol]
1073.2 K, x2 = 0.0427 | 0.194
1073.2 K, x2 = 0.0749 | 0.337
1073.2 K, x2 = 0.0819 | 0.358
1073.2 K, x2 = 0.1184 | 0.493
1073.2 K, x2 = 0.1417 | 0.584
1073.2 K, x2 = 0.1524 | 0.603
1073.2 K, x2 = 0.1852 | 0.697
1073.2 K, x2 = 0.2051 | 0.763
1073.2 K, x2 = 0.216 | 0.771
1073.2 K, x2 = 0.2446 | 0.834
1073.2 K, x2 = 0.2648 | 0.887
1073.2 K, x2 = 0.2722 | 0.891
1073.2 K, x2 = 0.2982 | 0.937
1073.2 K, x2 = 0.3165 | 0.973
1073.2 K, x2 = 0.3228 | 0.974
1073.2 K, x2 = 0.3461 | 1
1073.2 K, x2 = 0.3622 | 1.02
1073.2 K, x2 = 0.3683 | 1.02
1073.2 K, x2 = 0.3893 | 1.04
1073.2 K, x2 = 0.4032 | 1.04
1273.2 K, x2 = 0.1194 | 0.496
1273.2 K, x2 = 0.2184 | 0.84
1273.2 K, x2 = 0.2984 | 1.04
1273.2 K, x2 = 0.3648 | 1.15
1273.2 K, x2 = 0.4198 | 1.21
1273.2 K, x2 = 0.47 | 1.23
1273.2 K, x2 = 0.5122 | 1.24
1273.2 K, x2 = 0.5486 | 1.22
1273.2 K, x2 = 0.5801 | 1.2
1273.2 K, x2 = 0.6078 | 1.18
1273.2 K, x2 = 0.632 | 1.16
1273.2 K, x2 = 0.6535 | 1.13
1273.2 K, x2 = 0.673 | 1.1
1273.2 K, x2 = 0.6904 | 1.07
1273.2 K, x2 = 0.7077 | 1.04
1273.2 K, x2 = 0.724 | 1.01
1273.2 K, x2 = 0.7393 | 0.985
1273.2 K, x2 = 0.7532 | 0.956
1273.2 K, x2 = 0.7659 | 0.924
1273.2 K, x2 = 0.7773 | 0.897
1273.2 K, x2 = 0.7884 | 0.874
1273.2 K, x2 = 0.7985 | 0.859
1273.2 K, x2 = 0.8078 | 0.828
1273.2 K, x2 = 0.8164 | 0.802
1273.2 K, x2 = 0.8244 | 0.777
